According to patent US10010520B2, “Combined application of isothiocyanate compound and anti-cancer medicine” (JC (WUXI) COMPANY, INC., priority 2013, dated 2018):
pIC50: −log10 of the molar value. Several values for one entry are separate records, joined by “and”; a condition that tells them apart may be missing. Equal values may be shown once. Read-outs that look alike come from different tables or passages of the source.

Assays:
[1] = tested on: A549 cells; experiment: CellTiter-Glo cell viability, drugs alone or in combination, A549 cells; format: cell-based, human
Method: (§1) isothiocyanates or derivatives thereof and DNA-effecting or influencing anticancer drugs, kinase-inhibiting anticancer drugs or hormonal anticancer drugs for endocrine therapy were administered separately or in combination to cancer cells. Cells were seeded into 384-well plates, and cultured for 24 hours in a CO2 incubator. Drugs were dissolved in DMSO and diluted to 9 concentration-gradients in 96 well plates, and then added to corresponding cells in 384-well plates, in which the concentrations of DMSO in 384 well plates were less than 1%. Triplicate wells were set for each concentration. After administration, the cells were cultured in the CO2 incubator for another 72 hrs, and afterwards, cell viability was tested by using CellTiter-Glo® reagent and luminescence detector. And IC50 values of each administration group were calculated.
(§2) CI value was calculated by the following formula: CI=(Am)50/(As)50+(Bm)50/(Bs)50,
(§3) Triplicate wells were set for each co-administration cell well.
(§4) After administration, cells were cultured in the CO2 incubator for another 72 hrs, and afterwards, cell viability was tested by using CellTiter-Glo® reagent and luminescence detector. Curves were plotted according to concentrations or logarithm concentrations of drug A vs cell inhibition rate in the corresponding cell well, and IC50, i.e. (Am)50 was calculated.
(§5) 9 concentration gradients of drug A were set (A1, A2, A3, A4, A5, A6, A7, A8, A9), and administrated alone to the corresponding cells in the 384 well plate, and triplicate wells were set for each administration concentration. After administration, the cells were cultured in the CO2 incubator for another 72 hrs, and afterwards, cell viability was tested by using CellTiter-Glo® reagent and luminescence detector. Curves were plotted according to concentration or logarithm concentration of drug A vs the cell inhibition rate in the corresponding cell well, and IC50, i.e. (As)50 was calculated.
(§6) After administration, the cells were cultured in the CO2 incubator for another 72 hrs, and afterwards, cell viability was tested by using CellTiter-Glo® reagent and luminescence detector.

[2] = tested on: HT29 cells; experiment: CellTiter-Glo cell viability, drugs alone or in combination, HT29 cells; conditions: Homo sapiens, HT-29, 72 h
Method: After administration, cells were cultured in the CO2 incubator for another 72 hrs, and afterwards, cell viability was tested by using CellTiter-Glo® reagent and luminescence detector. Curves were plotted according to concentrations or logarithm concentrations of drug A vs cell inhibition rate in the corresponding cell well, and IC50, i.e. (Am)50 was calculated. […]

[3] = tested on: SK-MEL-28 cells; experiment: CellTiter-Glo cell viability, drugs alone or in combination, SK-MEL-28 cells; format: cell-based; conditions: Homo sapiens, 72 hrs
Method: as §1, §2, §3
as §4, with “calculated. […]” for “calculated.”

[4] = tested on: DU145 cells; experiment: CellTiter-Glo cell viability, drugs alone or in combination, DU145 cells; format: cell-based, human
Method: (§7) Cell culture: Androgen-dependent human prostate cancer cells LNCaP, from Shanghai Medicilon Ltd., were placed in a 37° C., 5% CO2 cell incubator, and were cultured in RPMI1640 culture medium with 10% FBS. Androgen-independent human prostate cancer cells DU145, PC-3, from Shanghai Medicilon Ltd., were placed in a 37° C., 5% CO2 cell incubator, and were cultured in F12 culture medium with 10% FBS.
as §1, §2, §3, §4, §5, §6

[5] = tested on: HeLa cells; experiment: CellTiter-Glo cell viability, drugs alone or in combination, HeLa cells; format: cell-based, human
Method: as §1, §2, §3, §4, §5, §6

[6] = tested on: Jurkat E6-1 cells; experiment: CellTiter-Glo cell viability, drugs alone or in combination, Jurkat E6-1 cells; format: cell-based, human; conditions: Jurkat E6-1 cells, 72 hrs, read-out: (As)50, IC50 of drug A when used alone
Method: as §1, §2, §3, §4, §5, §6

[7] = tested on: Saos-2 cells; experiment: CellTiter-Glo cell viability, drugs alone or in combination, Saos-2 cells; format: cell-based, human; conditions: Saos-2 cells, 72 hrs
Method: as §1, §2, §3, §4, §5, §6

[8] = tested on: human leukemia HL-60 cells; experiment: CellTiter-Glo cell viability, drugs alone or in combination, HL-60 cells; format: cell-based; conditions: read-out: (As)50, IC50 of drug A when used alone
Method: as §1, §2, §3, §4, §5, §6

[9] = tested on: pancreatic cancer cells PANC-1; experiment: CellTiter-Glo cell viability, drugs alone or in combination, PANC-1 cells; format: cell-based, human; conditions: PANC-1 cells, 72 hrs
Method: as §1, §2, §3, §4, §5, §6

[10] = tested on: LNCaP cells; experiment: CellTiter-Glo cell viability, drugs alone or in combination, LNCaP cells; format: cell-based, human; conditions: LNCaP cells, 72 hrs
Method: as §7, §1, §2, §3, §4, §5, §6

[11] = tested on: PC-3 cells; experiment: CellTiter-Glo cell viability, drugs alone or in combination, PC-3 cells; format: cell-based; conditions: Homo sapiens, 72 hrs
Method: as §7
isothiocyanates or derivatives thereof and DNA-effecting or influencing anticancer drugs, kinase-inhibiting anticancer drugs or hormonal anticancer drugs for endocrine therapy were administered separately or in combination to cancer cells. […] After administration, the cells were cultured in the CO2 incubator for another 72 hrs, and afterwards, cell viability was tested by using CellTiter-Glo® reagent and luminescence detector. And IC50 values of each administration group were calculated.
CI value was calculated by the following formula: CI=(Am)50/(As)50+(Bm)50/(Bs)50, […]
as §4, with “calculated. […]” for “calculated.”

[12] = tested on: human gastric cancer AGS cells; experiment: CellTiter-Glo cell viability, drugs alone or in combination, AGS cells
[13] = tested on: U251 cells; experiment: CellTiter-Glo cell viability, drugs alone or in combination, U251 cells; conditions: Homo sapiens, U-251, 72 h, read-out: (As)50, IC50 of drug A when used alone, U251 cells; 72 hrs
[14] = tested on: human kidney cancer cells 786-O; experiment: CellTiter-Glo cell viability, drugs alone or in combination, 786-O cells; conditions: 786-0, 72 h, read-out: (As)50, IC50 of drug A when used alone, 786-O cells, 72 hrs
[15] = tested on: OVCAR-3 cells; experiment: CellTiter-Glo cell viability, drugs alone or in combination, OVCAR-3 cells; conditions: 72 hrs
[16] = tested on: Human breast cancer MDA-MB-231 cells; experiment: CellTiter-Glo cell viability, drugs alone or in combination, MDA-MB-231 cells; conditions: 72 hrs
[17] = Homo sapiens, A549, 72 h, read-out: (Bs)50, IC50 of drug B when used alone
[18] = read-out: (Bs)50, IC50 of drug B when used alone
[19] = Homo sapiens, DU-145, 72 h, read-out: (Bs)50, IC50 of drug B when used alone
[20] = Homo sapiens, HeLa, 72 h, read-out: (As)50, IC50 of drug A when used alone
[21] = Homo sapiens, SAOS-2, 72 h, read-out: (As)50, IC50 of drug A when used alone
[22] = read-out: (As)50, IC50 of drug A when used alone
[23] = 72 hrs, read-out: (As)50, IC50 of drug A when used alone
[24] = Homo sapiens, PANC-1, 72 h, read-out: (As)50, IC50 of drug A when used alone
[25] = Homo sapiens, LNCaP, 72 h, read-out: (As)50, IC50 of drug A when used alone
[26] = Homo sapiens, MDA-MB-231, 72 h, read-out: (As)50, IC50 of drug A when used alone, MDA-MB-231 cells
[27] = Homo sapiens, LNCaP, 72 h, read-out: (Bs)50, IC50 of drug B when used alone
[28] = Homo sapiens, OVCAR-3, 72 h, read-out: (Bs)50, IC50 of drug B when used alone, OVCAR-3 cells
[29] = Homo sapiens, AGS, 72 h, read-out: (Bs)50, IC50 of drug B when used alone, AGS cells

**Q.** How did the pIC50 [1, 17] turn out when `CN(Cc1cnc2nc(N)nc(N)c2n1)c1ccc(C(=O)N[C@@H](CCC(=O)O)C(=O)O)cc1` [methotrexate, reference compound] was run?
**A.** 7.10

**Q.** How did the pIC50 [2, 18] turn out when `Nc1nc2c(c(=O)[nH]1)N(C=O)C(CNc1ccc(C(=O)N[C@@H](CCC(=O)O)C(=O)O)cc1)CN2` (stereo partly drawn) [Leucovorin, reference compound] was run?
**A.** < 4.00

**Q.** `CCCS(=O)(=O)Nc1ccc(F)c(C(=O)c2c[nH]c3ncc(-c4ccc(Cl)cc4)cc23)c1F` [Vemurafenib, reference compound] was tested. Which pIC50 [3, 18] did it give?
**A.** 5.92

**Q.** `CO[C@H]1C(=O)[C@]2(C)[C@@H](OC)C[C@H]3OC[C@@]3(OC(C)=O)[C@H]2[C@H](OC(=O)c2ccccc2)[C@]2(O)C[C@H](OC(=O)[C@H](O)[C@@H](NC(=O)OC(C)(C)C)c3ccccc3)C(C)=C1C2(C)C` [Cabazitaxel] was tested. Which pIC50 [4, 19] did it give?
**A.** 7.58

**Q.** `S=C=NCCc1ccccc1` [Phenethyl isothiocyanate] was tested. Which pIC50 [5, 20] did it give?
**A.** 4.79

**Q.** What about the pIC50 ([6]; Homo sapiens, Jurkat E6.1, 72 h) of the same compound?
**A.** 4.92

**Q.** What about the pIC50 [6] of the same compound?
**A.** 4.93 and 4.92 and 4.94

**Q.** What about the pIC50 [7, 21] of the same compound?
**A.** 4.69

**Q.** What about the pIC50 [3, 22] of the same compound?
**A.** 4.49

**Q.** And the pIC50 ([8]; 72 hrs)?
**A.** 5.18

**Q.** And the pIC50 ([8]; Homo sapiens, HL-60, 72 h)?
**A.** 5.20

**Q.** What about the pIC50 [1, 23] of the same compound?
**A.** 4.65

**Q.** And the pIC50 ([1]; Homo sapiens, A549, 72 h, read-out: (As)50, IC50 of drug A when used alone)?
**A.** 4.66

**Q.** What about the pIC50 [9, 24] of the same compound?
**A.** 4.71

**Q.** And the pIC50 [4, 23]?
**A.** 4.71

**Q.** And the pIC50 [10, 25]?
**A.** 4.69

**Q.** And the pIC50 [11, 22]?
**A.** 4.28

**Q.** What about the pIC50 ([12]; Homo sapiens, AGS, 72 h, read-out: (As)50, IC50 of drug A when used alone, AGS cells) of the same compound?
**A.** 4.83

**Q.** What about the pIC50 ([12]; read-out: (As)50, IC50 of drug A when used alone, AGS cells, 72 hrs) of the same compound?
**A.** 4.93

**Q.** And the pIC50 [13]?
**A.** 4.68

**Q.** And the pIC50 [2, 22]?
**A.** 4.54

**Q.** And the pIC50 [14]?
**A.** 4.80

**Q.** What about the pIC50 ([15]; read-out: (As)50, IC50 of drug A when used alone, OVCAR-3 cells) of the same compound?
**A.** 4.50 and 5.01

**Q.** What about the pIC50 [16, 26] of the same compound?
**A.** 4.60

**Q.** How did the pIC50 [4, 19] turn out when `CC(O)(CS(=O)(=O)c1ccc(F)cc1)C(=O)Nc1ccc(C#N)c(C(F)(F)F)c1` (stereo not drawn) [Bicalutamide, bicalutamide, reference compound] was run?
**A.** 3.89

**Q.** What about the pIC50 [10, 27] of the same compound?
**A.** 4.14

**Q.** And the pIC50 [10, 18]?
**A.** 4.15

**Q.** `S=C=NCc1ccccc1` [Benzyl isothiocyanate, benzyl isothiocyanate] was tested. Which pIC50 [5, 20] did it give?
**A.** 4.83

**Q.** And the pIC50 [7, 21]?
**A.** 4.84

**Q.** And the pIC50 ([8]; Homo sapiens, HL-60, 72 h)?
**A.** 4.94

**Q.** And the pIC50 [9, 24]?
**A.** 4.63

**Q.** What about the pIC50 [10, 25] of the same compound?
**A.** 4.73

**Q.** What about the pIC50 [14] of the same compound?
**A.** 4.88

**Q.** And the pIC50 [16, 26]?
**A.** 4.94

**Q.** `C[C@]12CC[C@H](O)CC1=CC[C@@H]1[C@@H]2CC[C@]2(C)C(c3cccnc3)=CC[C@@H]12` [Abiraterone, abiraterone, reference compound] was tested. Which pIC50 [4, 19] did it give?
**A.** 4.43

**Q.** And the pIC50 [10, 27]?
**A.** 4.67

**Q.** What about the pIC50 [11, 18] of the same compound?
**A.** 4.00

**Q.** `N.N.[Cl][Pt][Cl]` [cisplatin, Cisplatin, reference compound] was tested. Which pIC50 ([5]; 72 hrs, read-out: (Bs)50, IC50 of drug B when used alone) did it give?
**A.** 4.48

**Q.** What about the pIC50 ([15]; read-out: (Bs)50, IC50 of drug B when used alone, OVCAR-3 cells) of the same compound?
**A.** 4.69

**Q.** `Nc1ccn([C@@H]2O[C@H](CO)[C@@H](O)C2(F)F)c(=O)n1` [gemcitabine, Gemcitabine, reference compound] was tested. Which pIC50 [1, 17] did it give?
**A.** 5.02

**Q.** And the pIC50 [9, 18]?
**A.** 4.49

**Q.** What about the pIC50 [15, 28] of the same compound?
**A.** 4.05

**Q.** With `CC(=O)O[C@@]12CO[C@@H]1C[C@H](O)[C@@]1(C)C(=O)[C@H](O)C3=C(C)[C@@H](OC(=O)[C@H](O)[C@@H](NC(=O)OC(C)(C)C)c4ccccc4)C[C@@](O)([C@@H](OC(=O)c4ccccc4)[C@H]21)C3(C)C` [docetaxel, reference compound] as the compound, how does the pIC50 [12, 29] read?
**A.** 8.01

**Q.** And the pIC50 ([16]; read-out: (Bs)50, IC50 of drug B when used alone, MDA-MB-231 cells)?
**A.** 6.41

**Q.** How did the pIC50 ([7]; Homo sapiens, SAOS-2, 72 h, read-out: (Bs)50, IC50 of drug B when used alone) turn out when `COc1cccc2c1C(=O)c1c(O)c3c(c(O)c1C2=O)C[C@@](O)(C(=O)CO)C[C@@H]3O[C@H]1C[C@H](N)[C@H](O)[C@H](C)O1` [adriamycin, reference compound] was run?
**A.** 6.05

**Q.** And the pIC50 [7, 18]?
**A.** 6.24

**Q.** What about the pIC50 [12, 29] of the same compound?
**A.** 7.27

**Q.** What about the pIC50 [15, 28] of the same compound?
**A.** 5.76
